Test results published in PMC7145549, “A general strategy exploiting m^5C duplex-remodelling effect for selective detection of RNA and DNA m^5C methyltransferase activity in cells” (Nucleic Acids Research, 2019).
Entries after “also recorded” stand apart in the source; their conditions may differ. Read-outs that look alike come from different tables or passages of the source. Each block holds one compound with its values, some of them ahead of it.

Experiments:
[1] = UV-based thermal denaturation / thermodynamic analysis; type: physicochemical; settings: for increase in duplex stability on m5C methylation (ΔΔG°310): methylated vs unmethylated duplex
Experimental: UV-based thermal denaturation experiments
The melting of each duplex (1a, 1b, 7a, 7b, 11a and 11b) was performed on a Cary 300 UV-Visible Spectrophotometer (Varian) at a total strand concentration of 5 μM (unless otherwise stated) in 10 mM sodium phosphate buffer (pH 7.4), 150 mM NaCl and 20 mM MgCl2. Absorbance versus temperature profiles were recorded at 260 nm. The samples were first denatured by heating to 95 °C at 10 °C/min, followed by slow cooling to 25 °C at 0.4 °C/min to ensure a complete annealing of the strands. The melting transitions were then monitored by heating to 95 °C at 0.4 °C/min. To increase the accuracy of measurements, the sixth position was used to record the temperature data points by placing a temperature probe directly in the cuvette. Each oligo was measured at seven different concentrations (1, 2, 5, 10, 15, 20 and 30 μM), and a total of six independent melting transitions were measured for each concentration. The Tm values were determined by the Varian Cary Software using the baseline (alpha) method, which is defined as the point when the mole fraction of duplex was equal to 0.5. The melting transitions were generally found to be reproducible for all oligos studied.

[2] = CD conformational analysis at a range of MgCl2 concentrations; type: physicochemical; settings: 25°C, pH 7.4, 150 mM NaCl, MgCl2 0-300 mM
Experimental: Circular dichroism (CD) spectroscopy
The CD spectra for the duplexes were obtained using a JASCO J-810 spectropolarimeter, as previously described.4 Measurements were carried out at 25 °C with 5 μM probes in a 10 mM sodium phosphate buffer (pH 7.4) containing 150 mM NaCl, and varying MgCl2 concentrations (0, 5, 10, 20, 100, and 300 mM). The concentrations were determined by UV absorbance at 260 nm (A260) using a NanoDrop ND-1000 UV-Visible Spectrophotometer. The oligo solutions were first heated to 90 °C for 5 min, and re-annealed by slow cooling to 4 °C at a rate of 1 °C/min. CD spectra were then recorded in quartz cuvettes (path length 1 mm, 400 μL) from 220 nm to 330 nm at 25 °C using a 10 nm/min scan speed, a spectral band width of 1 nm and a time constant of 4 s. All the spectra were subtracted with the buffer blank and smoothed using the Savitsky-Golay algorithm (polynomial order 10). […]

NSUN2 [3] = molecular target: T1, NSUN2 (Homo sapiens, UniProt Q08J23); experiment: Cell-based m5C-probe methyltransferase assay (flow cytometry, probe 9a)
T1 sequence (Q08J23 whole entry): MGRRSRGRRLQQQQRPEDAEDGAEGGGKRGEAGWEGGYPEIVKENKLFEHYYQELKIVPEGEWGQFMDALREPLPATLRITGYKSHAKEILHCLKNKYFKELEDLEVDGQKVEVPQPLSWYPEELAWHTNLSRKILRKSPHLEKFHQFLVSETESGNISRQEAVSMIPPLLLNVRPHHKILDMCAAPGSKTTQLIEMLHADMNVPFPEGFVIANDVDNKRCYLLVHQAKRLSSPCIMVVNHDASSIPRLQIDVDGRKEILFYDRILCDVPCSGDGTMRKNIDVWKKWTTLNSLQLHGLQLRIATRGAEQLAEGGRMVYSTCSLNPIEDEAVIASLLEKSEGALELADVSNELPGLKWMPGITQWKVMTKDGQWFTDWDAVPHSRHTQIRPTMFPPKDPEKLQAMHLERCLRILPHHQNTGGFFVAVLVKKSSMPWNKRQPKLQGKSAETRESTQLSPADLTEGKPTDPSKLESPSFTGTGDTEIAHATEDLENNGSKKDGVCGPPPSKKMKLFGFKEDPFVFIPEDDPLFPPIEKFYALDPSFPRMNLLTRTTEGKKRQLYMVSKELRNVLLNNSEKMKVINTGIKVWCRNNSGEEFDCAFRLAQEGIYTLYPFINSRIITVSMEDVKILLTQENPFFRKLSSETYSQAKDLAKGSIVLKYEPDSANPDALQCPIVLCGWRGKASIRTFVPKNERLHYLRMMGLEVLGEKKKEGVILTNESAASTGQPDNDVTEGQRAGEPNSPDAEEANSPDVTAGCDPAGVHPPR
Experimental: The HeLa cells were pre-incubation with various concentrations of non-specific MTase inhibitors, including sinefungin, S-adenosyl-L-homocysteine (SAH), adenosine, and homocysteine at 37°C for 30 min. Nine different concentrations of inhibitors were used (0.1, 0.3, 1, 3, 10, 50, 100, 250, 1000 μM) and the final DMSO concentration was kept at less than 1% (v/v) of the assay mix. […] This was followed by the delivery of either the m^5C-probe 9a (10 μM) or control probe 10a (10 μM) into the cells via Lipofectamine 2000. Aliquots were then collected for flow cytometry measurements (λex 355 nm; λem 425–475 nm) at the indicated time points. The mean fluorescence intensity of at least 20 000 live cells was determined. IC50 determination: the IC50 values were then calculated from the variation in fluorescence at different inhibitor concentrations using nonlinear regression, with normalised dose-response fit on GraphPad Prism 6.0™. The assay was performed in triplicate for each inhibitor concentration. Z’ factor determination: the Z’ factor for our m^5C-probe assay was calculated using previously described method ([55]). For details, see Supplementary Data. […]
Cell-based m5C-probe methyltransferase assay
The HeLa cells were pre-incubation with various concentrations of DNA/RNA MTase inhibitors, including sinefungin, S-adenosyl-L-homocysteine (SAH), adenosine, and homocysteine at 37 °C for […]
and the final DMSO concentration was kept at less than 1% v/v of the assay mix. These concentrations […]
by the delivery of either the m5C-probe 9a (10 μM) or control probe 10a (10 μM) into the cells via Lipofectamine 2000, as described above. Aliquots were then collected for flow cytometry measurements (λex 355 nm; λem 425-475 nm) at the indicated time points. The mean fluorescence intensity of at least 20,000 live cells was determined.
For IC50 determination: the IC50 value were then calculated from the variation in fluorescence at different inhibitor concentrations using nonlinear regression, with normalised dose-response fit on GraphPad Prism 6.0™. The assay was performed in triplicate for each inhibitor concentration.
For the determination of Z’ factor: the Z’ factor for our m5C-probe assay was calculated using the method described by Zhang et al.17 A total of 40 independent assays were run with either sinefungin (1 mM; positive control) or DMSO (1% v/v; negative control). The Z’ factor was then calculated using […]
Where µp and µn are the means of the positive (p) and negative (n) controls σp and σn are the standard deviations of the positive (p) and negative (n) controls.

[4] = free fluorophore; cited from earlier work
NSUN2 [5] = molecular target: T1, NSUN2; experiment: In vitro m5C-probe fluorescence RNA methyltransferase assay; type: biochemical; set-up: Full-length human NSUN2 (containing C-terminal MYC/DDK tag; TP314459); MYC/DDK (C); purchased Origene Technologies Inc., USA TP314459; settings: inhibitor 10 μM, probe 9a 5 μM, NSUN2 0.5 μM
Experimental: (§1) RNA methyltransferase assay: the assay was performed at 37°C in triplicate in a Corning Costar 96-well flat bottom black plate. Reaction consisted of enzyme (0.5 μM), methyl donor S-adenosyl-L-methionine (SAM; 200 μM), m^5C-probe 9a (substrate; 5 μM) or locked-probe 10a (control; 5 μM) in a 50 mM HEPES buffer (pH 7.4) containing 150 mM NaCl and 20 mM MgCl2. The final reaction volume is 25 μl. The time course of fluorescence activation was recorded immediately after the addition of enzyme with a Tecan ultra microplate reader (λex 360 nm; λem 465 nm). An average of five scans was recorded. DNA methyltransferase assay: the assay was performed as described above. Reaction consisted of enzyme (NSUN2 or DNMT3A; 0.5 μM), methyl donor S-adenosyl-L-methionine (SAM; 200 μM), DNA m^5C-probe 11a (substrate; 5 μM) in a 50 mM HEPES buffer (pH 7.4) containing 150 mM NaCl and 20 mM MgCl2. The fluorescence of the reaction was monitored at λem 400 nm (λex 340 nm).
We next examined whether m^5C-probe 9a could function as fluorogenic substrate for RNA:m^5C MTase by testing it against NSUN2, which is of particular interest in light of emerging evidence linking NSUN2 with m^5C methylation of human mRNA ([14]) and its association with human cancers ([25–29]). […] The formation of methylated probe was measured by an increase in fluorescence signal at 465 nm (λex 360 nm).

DNMT3A = molecular target: T2, DNMT3A (Homo sapiens, UniProt Q9Y6K1); experiment: In vitro DNMT3A inhibition assay with DNA m5C-probe 11a; type: biochemical; settings: probe 11a 5 μM, DNMT3A 0.5 μM, 30 min; read-out: IC50 against DNMT3A
T2 construct: Full-length human DNMT3A protein containing N-terminal His-DDDDK tag was purchased from; His-DDDDK (N); purchased abcam plc; UK ab170408
T2 sequence (Q9Y6K1 whole entry, looked up): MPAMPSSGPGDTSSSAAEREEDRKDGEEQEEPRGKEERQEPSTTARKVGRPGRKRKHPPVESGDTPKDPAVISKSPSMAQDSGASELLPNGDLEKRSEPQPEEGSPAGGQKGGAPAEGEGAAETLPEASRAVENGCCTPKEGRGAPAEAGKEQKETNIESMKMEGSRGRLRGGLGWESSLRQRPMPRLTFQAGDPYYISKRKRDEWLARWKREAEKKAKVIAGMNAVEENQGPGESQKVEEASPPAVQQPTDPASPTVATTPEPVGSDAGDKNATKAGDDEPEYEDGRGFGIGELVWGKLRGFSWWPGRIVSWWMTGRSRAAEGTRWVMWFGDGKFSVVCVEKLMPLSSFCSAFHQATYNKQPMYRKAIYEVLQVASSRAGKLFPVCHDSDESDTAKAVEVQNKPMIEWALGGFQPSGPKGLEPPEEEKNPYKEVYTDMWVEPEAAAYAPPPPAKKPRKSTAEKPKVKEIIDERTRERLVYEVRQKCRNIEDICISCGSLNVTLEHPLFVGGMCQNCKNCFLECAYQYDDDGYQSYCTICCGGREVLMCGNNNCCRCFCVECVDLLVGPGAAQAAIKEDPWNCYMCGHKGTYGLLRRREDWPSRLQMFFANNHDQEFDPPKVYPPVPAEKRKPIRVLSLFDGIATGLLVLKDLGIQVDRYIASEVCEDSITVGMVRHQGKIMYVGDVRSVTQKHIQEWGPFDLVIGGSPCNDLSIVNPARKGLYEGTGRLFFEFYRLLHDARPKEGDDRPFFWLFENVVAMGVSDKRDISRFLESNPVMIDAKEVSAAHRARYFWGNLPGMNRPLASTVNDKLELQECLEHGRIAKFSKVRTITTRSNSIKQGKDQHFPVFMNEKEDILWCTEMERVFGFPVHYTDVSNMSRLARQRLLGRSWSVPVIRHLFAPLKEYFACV
Experimental: as §1
Importantly, m^5C-probe 11a may also be applied to the inhibition study of DNMT3A. […] Work is currently underway to explore the possibility of employing both probes concurrently for the simultaneous detection of RNA and DNA m^5C MTase activity.

[6] = Fluorescence emission and quantum yield analysis of probes; type: physicochemical; settings: in MeOH, reference standard, authors' conditions
Experimental: Fluorescence analysis was performed using a Cary Eclipse fluorescence spectrophotometer, as previously reported with modifications ([36]). The fluorescence emission spectra (λem = 400–600 nm) of the probes were recorded in a quartz cuvette at 37°C, at a total stand concentration 5 μM in a buffer of 10 mM sodium phosphate buffer (pH 7.4) containing 150 mM NaCl and 20 mM MgCl2. An average of five scans was recorded. Background fluorescence spectra were acquired after the probe has been incubated for 30 min at 37°C. For determination of fluorescence quantum yields of the m^5C-probes, see Supplementary Data.
The fluorescence quantum yields (ΦF) of pyrene (Py)-labelled DNA probes 11a-c were determined as previously described.7,11 UV absorption of the probes λex 340 nm was measured on a Cary-300 UV-Visible spectrophotometer (Varian Inc.) from 0.1 to 0.03 absorbance units in 0.01 increments. The fluorescence emission spectra were immediately measured afterwards in a Cary Eclipse (Varian Inc.) fluorescent spectrophotometer with an excitation wavelength of 340 nm. Pyrenebutanoic acid (PBA) in methanol was used as a reference, and was calculated using the equation below. The reported quantum yields are an average of three measurements within ±10%. […]
ΦF(PBA) is the cross-calibrated value for the fluorescence quantum emission yield of pyrenebutanoic acid (PBA) in MeOH. […]

[7] = pH 7.4, 150 mM NaCl, 20 mM MgCl2
[8] = HeLa cells, 30 min pre-incubation with inhibitor, probe 9a 10 μM, flow cytometry, read-out: IC50 against NSUN2

Compound: NC(CCS)C(=O)O (centres unmarked) [homocysteine]
IC50 (NSUN2 [3]; [8]): > 400 µM

Compound: O=c1nc2[nH]c(-c3ccccc3)cc2c[nH]1 [^pC, 6-phenylpyrrolocytosine]
quantum yield (ΦF) [4]: 0.31

Compound: Nc1ncnc2c1ncn2[C@@H]1O[C@H](C[C@@H](N)CC[C@H](N)C(=O)O)[C@@H](O)[C@H]1O [sinefungin]
IC50 (NSUN2 [3]): 8.9 µM
effect of inhibitor on probe 9a fluorescence activation by NSUN2 (NSUN2 [5]): reduces significantly; also recorded: significant reduction in fluorescence intensity
IC50 (DNMT3A): 0.7 µM

Compound: Nc1ncnc2c1ncn2[C@@H]1O[C@H](CO)[C@@H](O)[C@H]1O [adenosine]
IC50 (NSUN2 [3]; [8]): > 200 µM
IC50 (DNMT3A): 106 µM

Compound: O=C(O)CCCc1ccc2ccc3cccc4ccc1c2c34 [PBA, Pyrenebutanoic acid]
fluorescence quantum yield [6]: 0.061

Compound: Nc1ncnc2c1ncn2[C@@H]1O[C@H](CSCC[C@H](N)C(=O)O)[C@@H](O)[C@H]1O [SAH, S-adenosyl-L-homocysteine]
IC50 (NSUN2 [3]; [8]): 3.1 µM

Further lines, results first:

free energy of B-to-Z transition (ΔΔG°T) ([1]; ΔG°310 of 7b (20 mM MgCl2) vs 7b* (no MgCl2)): ~1.5 kcal/mol
midpoint MgCl2 concentration for B-Z transition [2]: ~ 10 mM
Compound: d(CG-m^5C-GCG)2 [7b]

duplex stabilisation by m5C (ΔΔG°310 per m5C) ([1]; absence of MgCl2): 0.5 kcal/mol per m5C
increase in melting temperature (Tm) per m5C ([1]; absence of MgCl2): 1.7 °C per m5C
ΔΔH° 7a→7b [1, 7]: 7.3 kcal/mol
ΔΔS° 7a→7b [1, 7]: 31.6 cal/mol/K
increase in duplex stability on m5C methylation (ΔΔG°310) [1, 7]: 2.5 kcal/mol
Compound: d(CG-C-GCG)2 [7a]

increase in duplex stability on m5C methylation (ΔΔG°310) [1, 7]: ~0.8 kcal/mol
Compound: r(CG-C-GCG)2 [1a]
